# Experimental data from article PMC8206213, “An L-2-hydroxyglutarate biosensor based on specific transcriptional regulator LhgR” (Nature Communications, 2021).
# Several values for one entry are separate records, joined by “and”; a condition that tells them apart may be missing. Identical values can stand only once.
# Key:
# LhgO = test: Enzymatic assay of LhgO in crude extracts of P. putida KT2440 derivatives grown on different carbon sources (induction of lhgO under LhgR control); type: cell-based, Pseudomonas putida
# Method: The cells were harvested at mid-log phase, washed twice and resuspended in phosphate-buffered saline (PBS), then lysed by sonication on ice after the addition of 1 mM phenylmethylsulfonyl fluoride (PMSF). […] Protein concentrations of the supernatants were determined using the Bradford protein assay kit (Sangon, China). […] The 800 μL reaction solution contained 0.1 mM […], 0.05 mM DCPIP, 0.2 mM phenazine methosulfate (PMS) in PBS and 40 μL crude extracts.
# LHGFR0N3C [1] = test: Specificity of purified LHGFR0N3C, emission ratio with 240 μM compounds; type: binding, Pseudomonas putida W619; details: 240 μM compound
# Method: (§1) Purified L-2-HG biosensors and different compounds were diluted by 50 mM Tris-HCl buffer (pH 7.4), mixed together in a black 96-well plate at a volume ratio of 3:1, and the fluorescence intensities were measured using an EnSight microplate reader (PerkinElmer, USA) with excitation at 430 nm, emission at 485 nm (mTFP) and 528 nm (Venus). […] The [L-2-HG], Kd, and p refer to the L-2-HG concentration, apparent dissociation constant, and Hill slope, respectively. Emission spectra were recorded at 430 nm excitation, in steps of 2 nm. Excitation spectra were recorded using emission at 550 nm, excitation from 380 to 535 nm in steps of 2 nm.
# LHGFR0N3C [2] = test: Influence of other compounds on the response of purified LHGFR0N3C to L-2-HG; type: binding, Pseudomonas putida W619
# Method: as §1
# LHGFR0N7C = test: Influence of other compounds on the response of purified LHGFR0N7C to L-2-HG; type: binding, Pseudomonas putida W619
# Method: as §1
compound,measurement,setting,value
"O=C(O)CC[C@H](O)C(=O)O [L-2-HG, L-2-Hydroxyglutarate]",LhgO activity,LhgO; crude extract of DcsiRDcsiDDlhgO-pME6032-F2-lhgR-F1-lhgO grown with the compound as sole carbon source,0.02147 and 0.02016 and 0.02474
same,LhgO activity,LhgO; crude extract of DcsiRDcsiDDlhgO-pME6032 grown with the compound as sole carbon source,0.00119 and 0.00104 and 0.00167
same,LhgO activity,LhgO; crude extract of DcsiRDlhgO-pME6032-F2-lhgR-F1-lhgO grown with the compound as sole carbon source,0.02241 and 0.0245 and 0.02829
same,Induction of lhgO expression / effector molecule of LhgR,LhgO; gene segment F2-lhgR-F1-lhgO in P. putida KT2440 derivatives,can induce the expression of lhgO
same,Emission ratio,LHGFR0N3C [1],2.0582 and 2.052 and 2.059
same,Emission ratio of 528/485,"LHGFR0N3C [2]; L-2-HG concentration 0.01, in the absence of 2-KG, Suppl. Fig. 9g",1.4026 and 1.407 and 1.399
same,Emission ratio of 528/485,"LHGFR0N3C [2]; L-2-HG concentration 0.01, in the absence of D-2-HG, Suppl. Fig. 9e",1.361 and 1.439 and 1.415
same,Emission ratio of 528/485,"LHGFR0N3C [2]; L-2-HG concentration 0.01, in the presence of 2-KG, Suppl. Fig. 9g",1.363
same,Emission ratio of 528/485,"LHGFR0N3C [2]; L-2-HG concentration 0.01, in the presence of D-2-HG, Suppl. Fig. 9e",1.406 and 1.467 and 1.446
same,Emission ratio of 528/485,"LHGFR0N3C [2]; L-2-HG concentration 0.1, in the absence of D-2-HG, Suppl. Fig. 9e",1.367 and 1.431 and 1.424
same,Emission ratio of 528/485,"LHGFR0N3C [2]; L-2-HG concentration 0.1, in the presence of D-2-HG, Suppl. Fig. 9e",1.407 and 1.464 and 1.416
same,Emission ratio of 528/485,"LHGFR0N3C [2]; L-2-HG concentration 0.2, in the absence of D-2-HG, Suppl. Fig. 9e",1.3539 and 1.456 and 1.407
same,Emission ratio of 528/485,"LHGFR0N3C [2]; L-2-HG concentration 0.2, in the presence of D-2-HG, Suppl. Fig. 9e",1.417 and 1.4607 and 1.422
same,Emission ratio of 528/485,"LHGFR0N3C [2]; L-2-HG concentration 1, in the absence of D-2-HG, Suppl. Fig. 9e",1.3919 and 1.421 and 1.443
same,Emission ratio of 528/485,"LHGFR0N3C [2]; L-2-HG concentration 1, in the presence of D-2-HG, Suppl. Fig. 9e",1.445 and 1.477 and 1.4328
same,Emission ratio of 528/485,"LHGFR0N3C [2]; L-2-HG concentration 2, in the absence of D-2-HG, Suppl. Fig. 9e",1.397 and 1.479 and 1.464
same,Emission ratio of 528/485,"LHGFR0N3C [2]; L-2-HG concentration 2, in the presence of D-2-HG, Suppl. Fig. 9e",1.472 and 1.492 and 1.494
same,Emission ratio of 528/485,"LHGFR0N3C [2]; L-2-HG concentration 10, in the absence of D-2-HG, Suppl. Fig. 9e",1.597 and 1.623 and 1.644
same,Emission ratio of 528/485,"LHGFR0N3C [2]; L-2-HG concentration 10, in the presence of D-2-HG, Suppl. Fig. 9e",1.611 and 1.627 and 1.593
same,Emission ratio of 528/485,"LHGFR0N3C [2]; L-2-HG concentration 20, in the absence of 2-KG, Suppl. Fig. 9g",1.741 and 1.744 and 1.757
same,Emission ratio of 528/485,"LHGFR0N3C [2]; L-2-HG concentration 20, in the absence of D-2-HG, Suppl. Fig. 9e",1.77 and 1.748 and 1.778
same,Emission ratio of 528/485,"LHGFR0N3C [2]; L-2-HG concentration 20, in the presence of 2-KG, Suppl. Fig. 9g",1.682 and 1.691 and 1.6943
same,Emission ratio of 528/485,"LHGFR0N3C [2]; L-2-HG concentration 20, in the presence of D-2-HG, Suppl. Fig. 9e",1.748 and 1.775 and 1.796
same,Emission ratio of 528/485,"LHGFR0N3C [2]; L-2-HG concentration 100, in the absence of 2-KG, Suppl. Fig. 9g",1.995 and 2.046 and 2.033
same,Emission ratio of 528/485,"LHGFR0N3C [2]; L-2-HG concentration 100, in the absence of D-2-HG, Suppl. Fig. 9e",1.9389 and 1.983 and 2.002
same,Emission ratio of 528/485,"LHGFR0N3C [2]; L-2-HG concentration 100, in the presence of 2-KG, Suppl. Fig. 9g",1.979 and 1.983 and 2.015
same,Emission ratio of 528/485,"LHGFR0N3C [2]; L-2-HG concentration 100, in the presence of D-2-HG, Suppl. Fig. 9e",2.01 and 1.942 and 2.017
same,Emission ratio of 528/485,"LHGFR0N3C [2]; L-2-HG concentration 200, in the absence of 2-KG, Suppl. Fig. 9g",2.097 and 2.071 and 2.086
same,Emission ratio of 528/485,"LHGFR0N3C [2]; L-2-HG concentration 200, in the absence of D-2-HG, Suppl. Fig. 9e",2.026 and 2.0171 and 2.117
same,Emission ratio of 528/485,"LHGFR0N3C [2]; L-2-HG concentration 200, in the presence of 2-KG, Suppl. Fig. 9g",2.058 and 2.06 and 2.089
same,Emission ratio of 528/485,"LHGFR0N3C [2]; L-2-HG concentration 200, in the presence of D-2-HG, Suppl. Fig. 9e",2.039 and 1.978 and 2.053
same,Emission ratio of 528/485,"LHGFR0N3C [2]; L-2-HG concentration 1000, in the absence of 2-KG, Suppl. Fig. 9g",2.1941 and 2.174 and 2.177
same,Emission ratio of 528/485,"LHGFR0N3C [2]; L-2-HG concentration 1000, in the absence of D-2-HG, Suppl. Fig. 9e",2.163 and 2.184 and 2.199
same,Emission ratio of 528/485,"LHGFR0N3C [2]; L-2-HG concentration 1000, in the presence of 2-KG, Suppl. Fig. 9g",2.1301 and 2.167 and 2.163
same,Emission ratio of 528/485,"LHGFR0N3C [2]; L-2-HG concentration 1000, in the presence of D-2-HG, Suppl. Fig. 9e",2.202 and 2.174 and 2.19
same,Emission ratio of 528/485,"LHGFR0N3C [2]; L-2-HG concentration 2000, in the absence of 2-KG, Suppl. Fig. 9g",2.149 and 2.166 and 2.182
same,Emission ratio of 528/485,"LHGFR0N3C [2]; L-2-HG concentration 2000, in the absence of D-2-HG, Suppl. Fig. 9e",2.176 and 2.24 and 2.201
same,Emission ratio of 528/485,"LHGFR0N3C [2]; L-2-HG concentration 2000, in the presence of 2-KG, Suppl. Fig. 9g",2.154 and 2.1518 and 2.167
same,Emission ratio of 528/485,"LHGFR0N3C [2]; L-2-HG concentration 2000, in the presence of D-2-HG, Suppl. Fig. 9e",2.195 and 2.175 and 2.2011
same,Emission ratio,"LHGFR0N3C [2]; Suppl. Fig. 9a, L-2-HG alone or with the compound, three replicates",2.053 and 2.0953 and 2.06
same,Emission ratio of 528/485,"LHGFR0N7C; L-2-HG concentration 0.01, in the absence of 2-KG, Suppl. Fig. 9h",1.669 and 1.681 and 1.673
same,Emission ratio of 528/485,"LHGFR0N7C; L-2-HG concentration 0.01, in the absence of D-2-HG, Suppl. Fig. 9f",1.668 and 1.665 and 1.6772
same,Emission ratio of 528/485,"LHGFR0N7C; L-2-HG concentration 0.01, in the presence of 2-KG, Suppl. Fig. 9h",1.723
same,Emission ratio of 528/485,"LHGFR0N7C; L-2-HG concentration 0.01, in the presence of D-2-HG, Suppl. Fig. 9f",1.965 and 1.961 and 1.978
same,Emission ratio of 528/485,"LHGFR0N7C; L-2-HG concentration 0.1, in the absence of D-2-HG, Suppl. Fig. 9f",1.677 and 1.673 and 1.693
same,Emission ratio of 528/485,"LHGFR0N7C; L-2-HG concentration 0.1, in the presence of D-2-HG, Suppl. Fig. 9f",1.971 and 1.964 and 1.956
same,Emission ratio of 528/485,"LHGFR0N7C; L-2-HG concentration 0.2, in the absence of D-2-HG, Suppl. Fig. 9f",1.691 and 1.69 and 1.731
same,Emission ratio of 528/485,"LHGFR0N7C; L-2-HG concentration 0.2, in the presence of D-2-HG, Suppl. Fig. 9f",1.971 and 1.94 and 1.9794
same,Emission ratio of 528/485,"LHGFR0N7C; L-2-HG concentration 1, in the absence of D-2-HG, Suppl. Fig. 9f",1.801 and 1.777 and 1.826
same,Emission ratio of 528/485,"LHGFR0N7C; L-2-HG concentration 1, in the presence of D-2-HG, Suppl. Fig. 9f",2.027 and 1.982 and 2.045
same,Emission ratio of 528/485,"LHGFR0N7C; L-2-HG concentration 2, in the absence of D-2-HG, Suppl. Fig. 9f",1.915 and 1.897 and 1.932
same,Emission ratio of 528/485,"LHGFR0N7C; L-2-HG concentration 2, in the presence of D-2-HG, Suppl. Fig. 9f",2.096 and 2.057 and 2.13
same,Emission ratio of 528/485,"LHGFR0N7C; L-2-HG concentration 10, in the absence of D-2-HG, Suppl. Fig. 9f",2.29 and 2.251 and 2.3138
same,Emission ratio of 528/485,"LHGFR0N7C; L-2-HG concentration 10, in the presence of D-2-HG, Suppl. Fig. 9f",2.341 and 2.308 and 2.373
same,Emission ratio of 528/485,"LHGFR0N7C; L-2-HG concentration 20, in the absence of 2-KG, Suppl. Fig. 9h",2.356 (2×) and 2.408
same,Emission ratio of 528/485,"LHGFR0N7C; L-2-HG concentration 20, in the absence of D-2-HG, Suppl. Fig. 9f",2.392 and 2.365 and 2.398
same,Emission ratio of 528/485,"LHGFR0N7C; L-2-HG concentration 20, in the presence of 2-KG, Suppl. Fig. 9h",2.43 and 2.42 and 2.428
same,Emission ratio of 528/485,"LHGFR0N7C; L-2-HG concentration 20, in the presence of D-2-HG, Suppl. Fig. 9f",2.458 and 2.457 and 2.465
